We go through 10 molecules from patent US20240099994A1, “LONG-ACTING INJECTABLE FORMULATIONS OF KETAMINE PAMOATE SALTS” (ALAR PHARMACEUTICAL INC., priority 2019, published 2024).

Counter-ions that a name gives are not always drawn. Like-named read-outs stand apart in the source and are kept apart here. Where only a bound is given, the exact number is not on record here.

The nature of series [1]: Intrinsic dissolution rate, rotating disk method (USP Chapter 1087). The conditions noted are these: for Intrinsic dissolution rate: 50 rpm, average of three samples; for BCS solubility classification: pH 7.4 medium. The format is physicochemical. As for the experimental part: The intrinsic dissolution rate of the crystal and amorphous forms of ketamine pamoate salts was determined by using the intrinsic dissolution rotating disk method described in Chapter 1087 of the U.S. Pharmacopeia under the conditions of medium pH as 1.2, 4.5, 6.8 or 7.4, medium volume as 900 mL, rotating speed as 50 rpm, medium temperature as 37° C., and detection wavelength as 210 nm. The results were shown in Tables 7 and 8 and FIGS. 27 to 29.

Series [2] has as its system DEX-induced depression-like animal model. The series is described as follows: Forced swimming test (FST) in dexamethasone (DEX)-induced depression-like animal model. The format is in vivo, ICR mice. The conditions noted are these: DEX-treated mice, SC, 120 mg/kg ketamine free-base; for Immobility time on FST: 1 day after administration. As to the method: (§1) FIG. 43 is a diagram illustrating the protocol of dexamethasone (DEX)-induced depression-like animal model to evaluate the antidepressant effects of ketamine HCl (KET), R, S-ketamine pamoate salt (KEP), S-ketamine pamoate salt (S-KEP), and R-ketamine pamoate salt (R-KEP). ICR mice were intraperitoneally injected with saline or DEX at postnatal day 1 to 3 (P1 to P3) with dose decrement of 0.5 mg/kg, 0.3 mg/kg, and 0.1 mg/kg, respectively. The drugs for each group or saline group were administered subcutaneously at day 35 (P35, i.e., dosing day 0, D0), and the forced swimming test (FST) were conducted every 10 days from dosing day 1 (D1, P36) to P98. Evaluation of sedation behavior was also conducted by sedation rating scale from the time immediately post injection to dosing day 28 after drug administration.
Depression-like animal model induced by dexamethasone (hereinafter abbreviated as DEX) was used to evaluate the antidepressant effects of ketamine HCl (KET), R, S-ketamine pamoate salt (KEP), S-ketamine pamoate salt (S-KEP), and R-ketamine pamoate salt (R-KEP) at equivalent dose (120 mg/kg ketamine free-base). According to literature, depressive-like behaviors were observed on juvenile mice and adult mice which neonatally exposed to DEX. Protocol of this example was shown in FIG. 43 and described in detail below.
Neonatal ICR mice were intraperitoneally injected with saline or DEX on postnatal day 1, 2, and 3 (P1 to P3) at doses of 0.5 mg/kg, 0.3 mg/kg, and 0.1 mg/kg, respectively. The mice received saline were called as Control group, and the mice received DEX were divided into the groups of KET, KEP, S-KEP, R-KEP and Saline (n=10 to 14 mice in each group). The mice of KET, KEP, S-KEP, and R-KEP groups were subcutaneously injected with KET formulation, the formulation AS04 comprising KEP, the formulation AS06 comprising S-KEP, and the formulation AS07 comprising R-KEP at postnatal day 35, respectively. The KET formulation was 20% (w/w) ketamine HCl dissolved in 0.9% saline. The formulations AS04, AS06 and AS07 were prepared in Example 18. Saline group mice were subcutaneously injected with equal volumes of 0.9% saline.
Antidepressant effects were evaluated by forced swimming test (FST), which performed about every 10 days from the first day (P36) to the 63rd day (P98) after drug administration. All groups of mice were trained for swimming before drug administration. During the FST, mice were individually placed into 5 L glass cylinders (height 27 cm, diameter 18 cm) filled with 4 L of water (23±1° C.). The total duration of immobility time during 5 minutes of FST was observed. Results were presented as mean±SEM. Student's t-test was analyzed with the Saline group (DEX-treated mouse group injected with saline) versus the other groups at each time point. *p<0.05, **p<0.01, ***p<0.001, and ****p<0.0001 indicate significant differences compared to the Saline group.

The nature of series [3]: Solubility test (USP guidance) in different pH media.
For a further series, the system named is ICR mice. The experiment in a line: Sedation behavior by rodent sedation rating scale. The conditions noted are these: SC, 120 mg/kg ketamine free-base; for Sedation behavior (rodent sedation rating scale): immediately post administration to 28 days. The format is in vivo. As for the experimental part: as §1
Furthermore, sedation behavior was also evaluated by rodent sedation rating scale (Table 28) immediately post drug administration to 28 days in this study.

For series [4] the following is noted: in water; cited from earlier work.
Setting [5] is: pH 7.4, 1% polysorbate 20 in medium, 37° C.
The mark [6] stands for this setting: pH 4.5, 1% polysorbate 20 in medium, 37° C.
[7] abbreviates: pH 6.8, 1% polysorbate 20 in medium, 37° C.

In the case of `CN[C@]1(c2ccccc2Cl)CCCCC1=O.Cl` [S-ketamine HCl, S-ketamine hydrochloride, reference compound], the Intrinsic dissolution rate in series [1] (setting [5]) is listed as 2.248 mg/min/cm^2. Besides, the BCS solubility classification entry in series [1] was “High”.

As for `CN[C@@]1(c2ccccc2Cl)CCCCC1=O` [R-ketamine pamoate salt (Crystal, ratio 2:1)], in series [2], the “Antidepressant effects on FST after single injection” value (shortened to “Antidepressant effects on FST”) was “rapid-onset antidepressant effects”. Besides, the Solubility in series [3] (pH 1.2 medium, listed as R-ketamine pamoate salt (Ratio 2:1) Crystal) came out at 1.09 mg/mL; in series [3] (pH 4.5 medium, listed as R-ketamine pamoate salt (Ratio 2:1) Crystal), 1.18 mg/mL; in series [3] (pH 6.8 medium, listed as R-ketamine pamoate salt (Ratio 2:1) Crystal), 0.40 mg/mL; in series [3] (pH 7.4 medium, listed as R-ketamine pamoate salt (Ratio 2:1) Crystal), 0.51 mg/mL. The same molecule displayed an Intrinsic dissolution rate in series [1] (setting [5]) of 0.025 mg/min/cm^2. For the same molecule, in series [1], the BCS solubility classification entry was “Low”. In addition, the “Sedation or other ketamine-related psychotomimetic effects and nervous system disorders post administration” value with ICR mice was “would not occur”.

For the molecule `CN[C@]1(c2ccccc2Cl)CCCCC1=O` [S-ketamine pamoate salt (Crystal, ratio 2:1)], the “Antidepressant effects on FST” value in series [2] was “rapid-onset antidepressant effects”. Also, the Solubility in series [3] (pH 1.2 medium, listed as S-ketamine pamoate salt (Ratio 2:1) Crystal) came to 1.24 mg/mL; in series [3] (pH 4.5 medium, listed as S-ketamine pamoate salt (Ratio 2:1) Crystal), 1.61 mg/mL; in series [3] (pH 6.8 medium, listed as S-ketamine pamoate salt (Ratio 2:1) Crystal), 0.39 mg/mL; in series [3] (pH 7.4 medium, listed as S-ketamine pamoate salt (Ratio 2:1) Crystal) it was 0.50 mg/mL. In addition, the Intrinsic dissolution rate in series [1] (setting [5]) turned out to be 0.027 mg/min/cm^2. In addition, the BCS solubility classification result in series [1] is “Low”. The “Sedation or other ketamine-related psychotomimetic effects and nervous system disorders post administration” value with ICR mice is “would not occur”.

On to `CNC1(c2ccccc2Cl)CCCCC1=O.CNC1(c2ccccc2Cl)CCCCC1=O.O=C(O)c1cc2ccccc2c(Cc2c(O)c(C(=O)O)cc3ccccc23)c1O` [R,S-ketamine pamoate salt (Crystal, ratio 2:1)] [R, S-ketamine pamoate salt], for which, in series [2], the “Antidepressant effects on FST” value is “rapid-onset antidepressant effects”. In addition, the “Immobility time on FST” value in series [2] was “reduced the immobility time”. Further, the Solubility in series [3] (pH 1.2 medium, listed as R, S-ketamine pamoate salt) turned out to be 1.68 mg/mL; in series [3] (pH 4.5 medium, listed as R,S-ketamine pamoate salt (Ratio 2:1) Crystal) it was 1.08 mg/mL; in series [3] (pH 6.8 medium), 0.16 mg/mL; in series [3] (pH 7.4 medium, listed as R,S-ketamine pamoate salt (Ratio 2:1) Crystal), 0.22 mg/mL. Also, the Intrinsic dissolution rate in series [1] (pH 1.2, 37° C.) is recorded as 0.095 mg/min/cm^2; in series [1] (setting [6]) it was 0.005 mg/min/cm^2; in series [1] (setting [7]) it was 0.011 mg/min/cm^2; in series [1] (setting [5]), 0.012 mg/min/cm^2. The “Sedation or other ketamine-related psychotomimetic effects and nervous system disorders post administration” value in the series on ICR mice is listed as “would not occur”. Besides, the “Sedation behavior (rodent sedation rating scale)” value with ICR mice is given as “normal behavior”.

For `CN[C@]1(c2ccccc2Cl)CCCCC1=O` [S-ketamine pamoate salt (Amorphous, ratio 2:1)], the Solubility is recorded as 1.00 mg/mL in series [3] (pH 1.2 medium, listed as S-ketamine pamoate salt (Ratio 2:1) Amorphous); 0.84 mg/mL in series [3] (pH 4.5 medium, listed as S-ketamine pamoate salt (Ratio 2:1) Amorphous); 0.48 mg/mL in series [3] (pH 6.8 medium, listed as S-ketamine pamoate salt (Ratio 2:1) Amorphous); 0.58 mg/mL in series [3] (pH 7.4 medium, listed as S-ketamine pamoate salt (Ratio 2:1) Amorphous). The Intrinsic dissolution rate in series [1] (setting [5]) is 0.026 mg/min/cm^2. Moreover, the BCS solubility classification result in series [1] is “Low”.

Regarding `CNC1(c2ccccc2Cl)CCCCC1=O.Cl` (stereo not drawn) [R-ketamine HCl, R-ketamine hydrochloride, reference compound], the Intrinsic dissolution rate in series [1] (setting [5]) amounted to 2.356 mg/min/cm^2. The BCS solubility classification entry in series [1] is recorded as “High”.

Turning to `CNC1(c2ccccc2Cl)CCCCC1=O.CNC1(c2ccccc2Cl)CCCCC1=O.O=C(O)c1cc2ccccc2c(Cc2c(O)c(C(=O)O)cc3ccccc23)c1O` [R,S-ketamine pamoate salt (Amorphous, ratio 2:1)] [R, S-ketamine pamoate salt], the Solubility in series [3] (pH 1.2 medium, listed as R,S-ketamine pamoate salt (Ratio 2:1) Amorphous) was 1.31 mg/mL; in series [3] (pH 4.5 medium, listed as R,S-ketamine pamoate salt (Ratio 2:1) Amorphous), 0.87 mg/mL; in series [3] (pH 6.8 medium), 0.16 mg/mL; in series [3] (pH 7.4 medium, listed as R,S-ketamine pamoate salt (Ratio 2:1) Amorphous), 0.18 mg/mL. This molecule also returned an Intrinsic dissolution rate in series [1] (setting [5]) of 0.024 mg/min/cm^2. Moreover, the BCS solubility classification entry in series [1] is listed as “Low”.

For the molecule `CNC1(c2ccccc2Cl)CCCCC1=O.O=C(O)c1cc2ccccc2c(Cc2c(O)c(C(=O)O)cc3ccccc23)c1O` [R- or S-ketamine pamoate salt], the Solubility was 0.72 mg/mL in series [3] (pH 1.2 medium), 0.45 mg/mL in series [3] (pH 4.5 medium), 0.07 mg/mL in series [3] (pH 6.8 medium) and 0.08 mg/mL in series [3] (pH 7.4 medium).

`CN[C@@]1(c2ccccc2Cl)CCCCC1=O` [R-ketamine pamoate salt (Amorphous, ratio 2:1)]: the Solubility in series [3] (pH 1.2 medium, listed as R-ketamine pamoate salt (Ratio 2:1) Amorphous) came to 1.15 mg/mL; in series [3] (pH 4.5 medium, listed as R-ketamine pamoate salt (Ratio 2:1) Amorphous) it was 0.99 mg/mL; in series [3] (pH 6.8 medium, listed as R-ketamine pamoate salt (Ratio 2:1) Amorphous), 0.64 mg/mL; in series [3] (pH 7.4 medium, listed as R-ketamine pamoate salt (Ratio 2:1) Amorphous), 0.95 mg/mL. In addition, in series [1] (setting [5]), the Intrinsic dissolution rate was found to be 0.021 mg/min/cm^2. For the same molecule, the BCS solubility classification entry in series [1] is listed as “Low”.

As for `CNC1(c2ccccc2Cl)CCCCC1=O` (stereo not drawn) [R,S-ketamine HCl, R, S-ketamine hydrochloride, reference compound], in series [2], the “Antidepressant effects on FST” value was “rapid-onset antidepressant effects”. Besides, the “Immobility time on FST” value in series [2] is reported as “reduced the immobility time”. Also, the Solubility in series [4] is more than 200 mg/mL. Moreover, the Intrinsic dissolution rate in series [1] (pH 1.2, 37° C.) is 5.329 mg/min/cm^2; in series [1] (setting [6]) it was 3.729 mg/min/cm^2; in series [1] (setting [7]), 2.918 mg/min/cm^2; in series [1] (setting [5]), 1.740 mg/min/cm^2. Moreover, the “Time to full recovery from sedation-related behavior post administration” value in the series with ICR mice was 2 h. In the series with ICR mice, the “Sedation behavior (rodent sedation rating scale)” value is listed as “mild sedation-related behavior”.
